# How the values were obtained:
# Shigella flexneri 11836 = assay: oral ED50, systemic infection in mice; format: in vivo, Shigella flexneri; female MF 2 mice; conditions: p.o., 2 doses
# in vivo = conditions: mouse, in vivo
# Excerpt: (§1) ^a calcultated according to Miller-Tainter ± standard error (Proc.
# (§2) ^b calculated according to the Probit-method with 95% confidence
# (§3) limits (Goulden A., Methods of Statistical Analysis, J. Wiley and Sons, […]
# mice = assay: in vivo; conditions: mice; in words, compared with II and IV
# Excerpt: as §1, §2, §3
# bactericidal activity = conditions: in words, compared with cephradin (III) and cephalexin (IV)
# solubility in urin = format: physicochemical; conditions: in words, compared with compound II
# [1] = test system: systemic infections due to various bacterial strains; conditions: female MF 2 mice; in words, compared with II, III, IV
# [2] = test system: Staphylococcus aureus 10B; assay: oral ED50, systemic infection in mice; conditions: in Mus musculus, read-out: oral ED50
# Excerpt: (§4) *single dose of antibiotic administered immediately after infection
# S. aureus 2999 i^+ p^+ = assay: oral ED50, systemic infection in mice; conditions: Staphylococcus aureus, in Mus musculus, read-out: oral ED50
# Excerpt: as §4
# [3] = test system: S. aureus 102 (methicillin res.); assay: oral ED50, systemic infection in mice; conditions: Staphylococcus aureus, in Mus musculus, read-out: oral ED50
# Excerpt: as §4
# [4] = test system: Streptococcus pyogenes 38; assay: oral ED50, systemic infection in mice; conditions: Streptococcus pyogenes, 38, in Mus musculus, 3 h, read-out: oral ED50
# S. pyogenes Aronson = assay: oral ED50, systemic infection in mice; conditions: Streptococcus pyogenes, in Mus musculus, read-out: oral ED50
# [5] = test system: Diplococcus pneumoniae 111/84; assay: oral ED50, systemic infection in mice; conditions: Streptococcus pneumoniae, 111/84, in Mus musculus, read-out: oral ED50
# Escherichia coli 205 = assay: oral ED50, systemic infection in mice; conditions: Escherichia coli, 205, in Mus musculus, read-out: oral ED50
# E. coli 205 R^+TEM = assay: oral ED50, systemic infection in mice; conditions: Escherichia coli, in Mus musculus, read-out: oral ED50
# Excerpt: (§5) **two doses; the first administered immediately after infection, the
# E. coli 2018 = assay: oral ED50, systemic infection in mice; conditions: Escherichia coli, 2018, in Mus musculus, read-out: oral ED50
# Excerpt: as §5
# E. coli 2018 R^+TEM = assay: oral ED50, systemic infection in mice; conditions: Escherichia coli, in Mus musculus, read-out: oral ED50
# Excerpt: as §5
# E. coli 2 = assay: oral ED50, systemic infection in mice; conditions: Escherichia coli, 2, in Mus musculus, read-out: oral ED50
# Excerpt: as §5
# E. coli 5 = assay: oral ED50, systemic infection in mice; conditions: Escherichia coli, 5, in Mus musculus, read-out: oral ED50
# Excerpt: as §5
# E. coli 9 = assay: oral ED50, systemic infection in mice; conditions: Escherichia coli, 9, in Mus musculus, read-out: oral ED50
# Excerpt: as §5
# E. coli 16 = assay: oral ED50, systemic infection in mice; conditions: Escherichia coli, 16, in Mus musculus, read-out: oral ED50
# Excerpt: as §5
# E. coli 9-25.1. = assay: oral ED50, systemic infection in mice; conditions: Escherichia coli, 925.1., in Mus musculus, read-out: oral ED50
# Excerpt: as §5
# E. coli 1239/19 = assay: oral ED50, systemic infection in mice; conditions: Escherichia coli, 1239/19, in Mus musculus, read-out: oral ED50
# Excerpt: as §5
# [6] = test system: Salmonella typhimurium 273; assay: oral ED50, systemic infection in mice; conditions: Salmonella enterica, in Mus musculus, read-out: oral ED50
# Excerpt: as §5
# S. typhimurium 277 = assay: oral ED50, systemic infection in mice; conditions: Salmonella enterica, in Mus musculus, read-out: oral ED50
# [7] = test system: Klebsiella pneumoniae 327; assay: oral ED50, systemic infection in mice; conditions: Klebsiella pneumoniae, 327, in Mus musculus, read-out: oral ED50
# K. pneumoniae 329 = assay: oral ED50, systemic infection in mice; conditions: Klebsiella pneumoniae, 329, in Mus musculus, read-out: oral ED50
# [8] = test system: Enterobacter cloacae P 99; assay: oral ED50, systemic infection in mice; conditions: P99, in Mus musculus, read-out: oral ED50
# proteus morganii 2359 = assay: oral ED50, systemic infection in mice; conditions: Morganella morganii, 2359, in Mus musculus, read-out: oral ED50
# P. vulgaris 1076 = assay: oral ED50, systemic infection in mice; conditions: Proteus vulgaris, 1076, in Mus musculus, read-out: oral ED50
# P. rettgeri 856 = assay: oral ED50, systemic infection in mice; conditions: Providencia rettgeri, 856, in Mus musculus, read-out: oral ED50
# P. mirabilis 774 = assay: oral ED50, systemic infection in mice; conditions: Proteus mirabilis, 774, in Mus musculus, read-out: oral ED50
# Serratia marcescens 344 = assay: oral ED50, systemic infection in mice; conditions: Serratia marcescens, 344, in Mus musculus, read-out: oral ED50
# Pasteurella multocid 341 = assay: oral ED50, systemic infection in mice; conditions: Pasteurella, 341, in Mus musculus, read-out: oral ED50
# [9] = test system: Pseudomonas aeruginosa 799; assay: oral ED50, systemic infection in mice; conditions: Pseudomonas aeruginosa, 799, in Mus musculus, read-out: oral ED50
SMILES,ED50 (Shigella flexneri 11836) [mg/kg],ED50 [2] [mg/kg],ED50 (S. aureus 2999 i^+ p^+) [mg/kg],ED50 [3] [mg/kg],ED50 [4] [mg/kg],ED50 (S. pyogenes Aronson) [mg/kg],ED50 [5] [mg/kg],ED50 (Escherichia coli 205) [mg/kg],ED50 (E. coli 205 R^+TEM) [mg/kg],ED50 (E. coli 2018) [mg/kg],ED50 (E. coli 2018 R^+TEM) [mg/kg],ED50 (E. coli 2) [mg/kg],ED50 (E. coli 5) [mg/kg],ED50 (E. coli 9) [mg/kg],ED50 (E. coli 16) [mg/kg],ED50 (E. coli 9-25.1.) [mg/kg],ED50 (E. coli 1239/19) [mg/kg],ED50 [6] [mg/kg],ED50 (S. typhimurium 277) [mg/kg],ED50 [7] [mg/kg],also measured
COC1=C(C(=O)O)N2C(=O)[C@@H](NC(=O)[C@H](N)C3=CCC=CC3)[C@H]2SC1 [compound I],25,3.3,25,17.5,1,1,8.5,9.5,7.3,3,14,~140,7.8,~30,> 300,≥ 300,4,30,30,40,LD50 (in vivo; ip): 7090 mg/kg; LD50 (in vivo; po): > 6000 mg/kg; acute toxicity (mice): more favourable as the acute toxicity of compounds II and IV; bactericidal activity (bactericidal activity): surprisingly stronger bactericidal activity as compared to cephradin (III) and cephalexin (IV); solubility in urin (solubility in urin): higher as compared to compound II; chemotherapeutic activity [1]: surprisingly stronger chemotherapeutic activity; ED50 (K. pneumoniae 329): 17 mg/kg; ED50 [8]: > 300 mg/kg; ED50 (proteus morganii 2359): > 300 mg/kg; ED50 (P. vulgaris 1076): 20 mg/kg; ED50 (P. rettgeri 856): 6.8 mg/kg; ED50 (P. mirabilis 774): 16 mg/kg; ED50 (Serratia marcescens 344): > 300 mg/kg; ED50 (Pasteurella multocid 341): 17 mg/kg; ED50 [9]: > 300 mg/kg
CC1=C(C(=O)O)N2C(=O)[C@@H](NC(=O)[C@H](N)C3=CCC=CC3)[C@H]2SC1 [cephradine],11,6,32,76,8,5.5,40,52,16,13,38,> 300,> 30,≥ 300,> 300,> 300,~25,80,110,250,ED50 (K. pneumoniae 329): 120 mg/kg; ED50 [8]: > 1000 mg/kg; ED50 (proteus morganii 2359): > 1000 mg/kg; ED50 (P. vulgaris 1076): 80 mg/kg; ED50 (P. rettgeri 856): ≥ 30 mg/kg; ED50 (P. mirabilis 774): ~50 mg/kg; ED50 (Serratia marcescens 344): > 1000 mg/kg; ED50 (Pasteurella multocid 341): 110 mg/kg; ED50 [9]: > 300 mg/kg

# — US4073902A, “O-Substituted 7β-amino-3-cephem-3-ol-4-carboxylic acid compounds” (priority 1972, dated 1978)
